This is an account of results in article PMC5218480 (PLoS ONE, 2017).

The subject of the assay is MV-4-11 cells. The assay can be described thus: Gene expression microarray analysis (Affymetrix PrimeView) and GSEA. It counts as cell-based, human. Further details: RFU PODN (11730768_x_at) / Fold change /veh PODN (11730768_x_at) / RFU LINC00158 (11744669_a_at) / Fold change /veh LINC00158 (11744669_a_at) / RFU DUSP10 (11751237_a_at) / Fold change /veh DUSP10 (11751237_a_at) / RFU ID3 (11757404_x_at) / Fold change /veh ID3 (11757404_x_at) / RFU PLEKHG5 (11737974_s_at) / Fold change /veh PLEKHG5 (11737974_s_at) / RFU LRRC4B (11730491_at) / Fold change /veh LRRC4B (11730491_at) / RFU GIMAP4 (11747438_a_at) / Fold change /veh GIMAP4 (11747438_a_at) / RFU KRT8 (11758183_x_at) / Fold change /veh KRT8 (11758183_x_at) / RFU CNN1 (11734310_a_at) / Fold change /veh CNN1 (11734310_a_at) / RFU VPS37D (11726825_at) / Fold change /veh VPS37D (11726825_at) / RFU C10orf10 (11716522_x_at) / Fold change /veh C10orf10 (11716522_x_at) / RFU KIR2DL2 /// KIR2DL4 /// KIR2DL5A /// KIR2DL5B /// KIR2DS1 /// KIR2DS2 /// KIR2DS3 /// KIR2DS4 /// KIR3DL3 /// KIR3DL3 /// KIR3DS1 (11738374_at) / Fold change /veh KIR2DL2 /// KIR2DL4 /// KIR2DL5A /// KIR2DL5B /// KIR2DS1 /// KIR2DS2 /// KIR2DS3 /// KIR2DS4 /// KIR3DL3 /// KIR3DL3 /// KIR3DS1 (11738374_at) / RFU C1QL1 (11718748_at) / Fold change /veh C1QL1 (11718748_at) / RFU TMPRSS4 (11747572_a_at) / Fold change /veh TMPRSS4 (11747572_a_at) / RFU HAMP (11756126_x_at) / Fold change /veh HAMP (11756126_x_at) / RFU RNFT2 (11725882_a_at) / Fold change /veh RNFT2 (11725882_a_at) / RFU NR4A2 (11747474_a_at) / Fold change /veh NR4A2 (11747474_a_at) / RFU ABCC12 (11746883_a_at) / Fold change /veh ABCC12 (11746883_a_at) / RFU TMEM136 (11760407_x_at) / Fold change /veh TMEM136 (11760407_x_at) / RFU CLDN22 /// WWC2 (11732394_at) / Fold change /veh CLDN22 /// WWC2 (11732394_at) / RFU HLA-DPB1 (11760878_x_at) / Fold change /veh HLA-DPB1 (11760878_x_at) / RFU SPINT1 (11716480_a_at) / Fold change /veh SPINT1 (11716480_a_at) / RFU GAP43 (11754022_s_at) / Fold change /veh GAP43 (11754022_s_at) / RFU A4GNT (11735810_at) / Fold change /veh A4GNT (11735810_at) / RFU PRB3 (11715151_x_at) / Fold change /veh PRB3 (11715151_x_at) / RFU TUBB4B (11761932_at) / Fold change /veh TUBB4B (11761932_at) / RFU CAPN14 (11732068_a_at) / Fold change /veh CAPN14 (11732068_a_at) / RFU TMCC2 (11721928_a_at) / Fold change /veh TMCC2 (11721928_a_at) / RFU IRGQ (11745062_a_at) / Fold change /veh IRGQ (11745062_a_at) / RFU FAM174B (11720279_a_at) / Fold change /veh FAM174B (11720279_a_at) / RFU TMPRSS4 (11748680_a_at) / Fold change /veh TMPRSS4 (11748680_a_at) / RFU FAM212B (11763350_a_at) / Fold change /veh FAM212B (11763350_a_at) / RFU PLEKHG5 (11743358_a_at) / Fold change /veh PLEKHG5 (11743358_a_at) / RFU ZSCAN30 (11745921_a_at) / Fold change /veh ZSCAN30 (11745921_a_at) / RFU CMKLR1 (11741424_a_at) / Fold change /veh CMKLR1 (11741424_a_at) / RFU LOC101060620 /// MAPK8IP1 (11723275_at) / Fold change /veh LOC101060620 /// MAPK8IP1 (11723275_at) / RFU SPTSSB (11747773_x_at) / Fold change /veh SPTSSB (11747773_x_at) / RFU PRSS12 (11739890_at) / Fold change /veh PRSS12 (11739890_at) / RFU BIN1 (11741810_x_at) / Fold change /veh BIN1 (11741810_x_at) / RFU WNT11 (11732464_a_at) / Fold change /veh WNT11 (11732464_a_at) / RFU C10orf10 (11716521_a_at) / Fold change /veh C10orf10 (11716521_a_at) / RFU C5orf56 (11738089_at) / Fold change /veh C5orf56 (11738089_at) / RFU CYB561 (11721691_x_at) / Fold change /veh CYB561 (11721691_x_at) / RFU ANKRD19P (11752326_a_at) / Fold change /veh ANKRD19P (11752326_a_at) / RFU OR2T12 /// OR2T33 /// OR2T8 (11738714_s_at) / Fold change /veh OR2T12 /// OR2T33 /// OR2T8 (11738714_s_at) / RFU VCAN (11748164_a_at) / Fold change /veh VCAN (11748164_a_at) / RFU JSRP1 (11732532_at) / Fold change /veh JSRP1 (11732532_at) / RFU KRTAP10-11 (11738290_x_at) / Fold change /veh KRTAP10-11 (11738290_x_at) / RFU MYO3A (11730013_a_at) / Fold change /veh MYO3A (11730013_a_at) / RFU EBF3 (11725865_a_at) / Fold change /veh EBF3 (11725865_a_at) / RFU CAMK2N1 (11719241_x_at) / Fold change /veh CAMK2N1 (11719241_x_at) / RFU C5orf56 (11738088_a_at) / Fold change /veh C5orf56 (11738088_a_at) / RFU OLFML3 (11715873_a_at) / Fold change /veh OLFML3 (11715873_a_at) / RFU LOC100653217 /// NTM (11731650_a_at) / Fold change /veh LOC100653217 /// NTM (11731650_a_at) / RFU MAPK11 (11762145_a_at) / Fold change /veh MAPK11 (11762145_a_at) / RFU FIZ1 (11724087_x_at) / Fold change /veh FIZ1 (11724087_x_at) / RFU OASL (11726364_x_at) / Fold change /veh OASL (11726364_x_at) / RFU SOX15 (11748057_x_at) / Fold change /veh SOX15 (11748057_x_at) / RFU CD79A (11719716_a_at) / Fold change /veh CD79A (11719716_a_at) / RFU HIST1H1D (11736915_at) / Fold change /veh HIST1H1D (11736915_at) / RFU CASKIN2 (11723855_a_at) / Fold change /veh CASKIN2 (11723855_a_at) / RFU LOC730098 (11760151_x_at) / Fold change /veh LOC730098 (11760151_x_at) / RFU OR4N2 (11742367_at) / Fold change /veh OR4N2 (11742367_at) / RFU PRRT2 (11749266_a_at) / Fold change /veh PRRT2 (11749266_a_at) / RFU SNX32 (11753110_a_at) / Fold change /veh SNX32 (11753110_a_at) / RFU CDHR5 (11726645_a_at) / Fold change /veh CDHR5 (11726645_a_at) / RFU RCAN1 (11760418_a_at) / Fold change /veh RCAN1 (11760418_a_at) / RFU FAM167A (11723789_a_at) / Fold change /veh FAM167A (11723789_a_at) / RFU FAM26E (11764081_at) / Fold change /veh FAM26E (11764081_at) / RFU ISYNA1 (11749810_s_at) / Fold change /veh ISYNA1 (11749810_s_at) / RFU ACY1 (11761880_at) / Fold change /veh ACY1 (11761880_at) / RFU 11764098_at / Fold change /veh 11764098_at / RFU SAMD14 (11745864_x_at) / Fold change /veh SAMD14 (11745864_x_at) / RFU NPB (11741838_a_at) / Fold change /veh NPB (11741838_a_at) / RFU TMPRSS6 (11731388_a_at) / Fold change /veh TMPRSS6 (11731388_a_at) / RFU KRTAP10-2 (11738614_at) / Fold change /veh KRTAP10-2 (11738614_at) / RFU ARHGAP8 /// PRR5-ARHGAP8 (11727945_x_at) / Fold change /veh ARHGAP8 /// PRR5-ARHGAP8 (11727945_x_at) / RFU KRTAP5-7 /// NADSYN1 (11734609_at) / Fold change /veh KRTAP5-7 /// NADSYN1 (11734609_at) / RFU RASL12 (11751679_a_at) / Fold change /veh RASL12 (11751679_a_at) / RFU CDKN2B (11736163_a_at) / Fold change /veh CDKN2B (11736163_a_at) / RFU PRF1 (11729649_at) / Fold change /veh PRF1 (11729649_at) / RFU, ZNF638 /// ZNF638-IT1 / Fold change vs veh, ZNF638 /// ZNF638-IT1 / RFU, PANK3 / Fold change vs veh, PANK3 / RFU, SH3YL1 / Fold change vs veh, SH3YL1 / RFU, ZEB2 / Fold change vs veh, ZEB2 / RFU, NRIP1 / Fold change vs veh, NRIP1 / RFU, PTTG1IP / Fold change vs veh, PTTG1IP / RFU, CAPN2 / Fold change vs veh, CAPN2 / RFU, MED14 / Fold change vs veh, MED14 / RFU, SNORA58 / Fold change vs veh, SNORA58 / RFU, C1orf63 / Fold change vs veh, C1orf63 / RFU, LRRFIP1 / Fold change vs veh, LRRFIP1 / RFU, NDUFAF7 / Fold change vs veh, NDUFAF7 / RFU, SLC12A2 / Fold change vs veh, SLC12A2 / RFU, IBTK / Fold change vs veh, IBTK / RFU, ESF1 / Fold change vs veh, ESF1 / Fold change vs veh, TMEM50B / RFU, TAOK1 / Fold change vs veh, TAOK1 / RFU, ACBD3 / Fold change vs veh, ACBD3 / RFU, TMA16 / Fold change vs veh, TMA16 / RFU, RWDD3 / Fold change vs veh, RWDD3 / RFU, BCAT1 / Fold change vs veh, BCAT1 / RFU, EDEM3 / Fold change vs veh, EDEM3 / RFU, TMEM33 / Fold change vs veh, TMEM33 / RFU, WDR75 / Fold change vs veh, WDR75 / RFU, AHCTF1 / Fold change vs veh, AHCTF1 / RFU, TFRC / Fold change vs veh, TFRC / RFU, ZDHHC17 / Fold change vs veh, ZDHHC17 / RFU, NOM1 / Fold change vs veh, NOM1 / RFU, ARL8B / Fold change vs veh, ARL8B / RFU, ZBTB11 / Fold change vs veh, ZBTB11 / RFU, TAMM41 / Fold change vs veh, TAMM41 / RFU, KIAA1704 /// LOC100996395 / Fold change vs veh, KIAA1704 /// LOC100996395 / RFU, ING1 / Fold change vs veh, ING1 / RFU, TRMT61B / Fold change vs veh, TRMT61B / RFU, FUBP3 / Fold change vs veh, FUBP3 / RFU, TP53 / Fold change vs veh, TP53 / RFU, TNKS2 / Fold change vs veh, TNKS2 / RFU, ZFP14 / Fold change vs veh, ZFP14 / RFU, ACTR2 / Fold change vs veh, ACTR2 / RFU, PPP3R1 / Fold change vs veh, PPP3R1 / RFU, PIK3R1 / Fold change vs veh, PIK3R1 / RFU, HNRNPA1 / Fold change vs veh, HNRNPA1 / RFU, RNF170 / Fold change vs veh, RNF170 / RFU, ZNF28 / Fold change vs veh, ZNF28 / RFU, RNGTT / Fold change vs veh, RNGTT / RFU, OGT / Fold change vs veh, OGT / RFU, BRD1 / Fold change vs veh, BRD1 / RFU, MARS / Fold change vs veh, MARS / RFU, ZNF655 / Fold change vs veh, ZNF655 / RFU, FAHD1 / Fold change vs veh, FAHD1 / RFU, BDP1 / Fold change vs veh, BDP1 / RFU, LRRCC1 / Fold change vs veh, LRRCC1 / RFU, ARID1A / Fold change vs veh, ARID1A / RFU, ZNF146 / Fold change vs veh, ZNF146 / RFU, ZNF330 / Fold change vs veh, ZNF330 / RFU, GPN3 / Fold change vs veh, GPN3 / RFU, C9orf123 / Fold change vs veh, C9orf123 / RFU, N4BP2L2 / Fold change vs veh, N4BP2L2 / RFU, ARFIP1 / Fold change vs veh, ARFIP1 / RFU, FAM179B / Fold change vs veh, FAM179B / RFU, BCL10 / Fold change vs veh, BCL10 / RFU, UHRF1BP1L / Fold change vs veh, UHRF1BP1L / RFU, BET1 / Fold change vs veh, BET1 / RFU, CNOT2 / Fold change vs veh, CNOT2 / RFU, ZNF268 / Fold change vs veh, ZNF268 / Fold change vs veh, ZNF507 / RFU, DGCR2 / Fold change vs veh, DGCR2 / RFU, WDSUB1 / Fold change vs veh, WDSUB1 / Fold change vs veh, HSP90B1 /// MIR3652 / RFU, ADSS / Fold change vs veh, ADSS / RFU, GK / Fold change vs veh, GK / RFU, ZNF148 / Fold change vs veh, ZNF148 / RFU, TAF9 / Fold change vs veh, TAF9 / RFU, SLC1A5 / Fold change vs veh, SLC1A5 / RFU, SLMO2 / Fold change vs veh, SLMO2 / RFU, ABCC4 / Fold change vs veh, ABCC4 / RFU, LOC101060439 /// RAP1B / Fold change vs veh, LOC101060439 /// RAP1B / RFU, RFX7 / Fold change vs veh, RFX7 / RFU, GTPBP10 / Fold change vs veh, GTPBP10 / RFU, CNEP1R1 / Fold change vs veh, CNEP1R1 / RFU, BIVM-ERCC5 /// ERCC5 / Fold change vs veh, BIVM-ERCC5 /// ERCC5 / RFU, ILF3 / Fold change vs veh, ILF3 / RFU 11762660_at / Fold change /veh 11762660_at / RFU VCAN (11757783_s_at) / Fold change /veh VCAN (11757783_s_at) / RFU DDX43 (11728927_at) / Fold change /veh DDX43 (11728927_at) / RFU KRT8 (11758188_x_at) / Fold change /veh KRT8 (11758188_x_at) / RFU NKD1 (11759106_at) / Fold change /veh NKD1 (11759106_at) / RFU SRD5A1 (11742802_a_at) / Fold change /veh SRD5A1 (11742802_a_at) / RFU TPSAB1 /// TPSB2 (11721975_s_at) / Fold change /veh TPSAB1 /// TPSB2 (11721975_s_at) / RFU GSTM3 (11746129_a_at) / Fold change /veh GSTM3 (11746129_a_at) / RFU IL23R (11737362_x_at) / Fold change /veh IL23R (11737362_x_at) / RFU TMEM51 (11727254_a_at) / Fold change /veh TMEM51 (11727254_a_at) / RFU PIWIL2 (11732686_x_at) / Fold change /veh PIWIL2 (11732686_x_at) / RFU ORM1 (11744905_x_at) / Fold change /veh ORM1 (11744905_x_at) / RFU CCDC152 (11743942_at) / Fold change /veh CCDC152 (11743942_at) / RFU ECM1 (11717891_a_at) / Fold change /veh ECM1 (11717891_a_at) / RFU IL23R (11748794_a_at) / Fold change /veh IL23R (11748794_a_at) / RFU TNFAIP8L3 (11732012_x_at) / Fold change /veh TNFAIP8L3 (11732012_x_at) / RFU MBOAT4 (11741988_at) / Fold change /veh MBOAT4 (11741988_at) / RFU 11764193_at / Fold change /veh 11764193_at / RFU TMEM53 (11763286_at) / Fold change /veh TMEM53 (11763286_at) / RFU MAGEB2 (11727129_at) / Fold change /veh MAGEB2 (11727129_at) / RFU TMEM200A (11744735_a_at) / Fold change /veh TMEM200A (11744735_a_at) / RFU CCDC152 (11751479_a_at) / Fold change /veh CCDC152 (11751479_a_at) / RFU FAM211A (11726209_a_at) / Fold change /veh FAM211A (11726209_a_at) / RFU RGS16 (11746705_a_at) / Fold change /veh RGS16 (11746705_a_at) / RFU VCAN (11755009_s_at) / Fold change /veh VCAN (11755009_s_at) / RFU RHOB (11743442_s_at) / Fold change /veh RHOB (11743442_s_at) / RFU RGS16 (11720943_a_at) / Fold change /veh RGS16 (11720943_a_at) / RFU RGS16 (11720944_at) / Fold change /veh RGS16 (11720944_at) / RFU, VPS4B / Fold change vs veh, VPS4B / RFU, CREB1 / Fold change vs veh, CREB1 / RFU, DNAJC13 / Fold change vs veh, DNAJC13 / RFU, GNAQ / Fold change vs veh, GNAQ / RFU, CDK5R1 / Fold change vs veh, CDK5R1 / RFU, ZRANB3 / Fold change vs veh, ZRANB3 / RFU, CUL4A / Fold change vs veh, CUL4A / RFU, CCNY / Fold change vs veh, CCNY / RFU, UFL1 / Fold change vs veh, UFL1 / RFU, COG3 / Fold change vs veh, COG3 / RFU, DIAPH2 / Fold change vs veh, DIAPH2 / RFU, SKA2 / Fold change vs veh, SKA2 / RFU, AFF3 / Fold change vs veh, AFF3 / RFU, LMF1 / Fold change vs veh, LMF1 / RFU, IPO11 / Fold change vs veh, IPO11 / RFU, DFFB / Fold change vs veh, DFFB / RFU, FOXP1 / Fold change vs veh, FOXP1 / RFU, CARD8 / Fold change vs veh, CARD8 / RFU, STRN3 / Fold change vs veh, STRN3 / RFU, ADK / Fold change vs veh, ADK / RFU, RASSF2 / Fold change vs veh, RASSF2 / RFU, WIPF1 / Fold change vs veh, WIPF1 / RFU, LARP1B / Fold change vs veh, LARP1B / RFU, RASA1 / Fold change vs veh, RASA1 / RFU, RB1 / Fold change vs veh, RB1 / RFU, PPFIA1 / Fold change vs veh, PPFIA1 / RFU, MAT2A / Fold change vs veh, MAT2A / RFU, CCT5 / Fold change vs veh, CCT5 / RFU, WDR92 / Fold change vs veh, WDR92 / RFU, CUX1 / Fold change vs veh, CUX1 / RFU, TTC7A / Fold change vs veh, TTC7A / RFU, TMEM135 / Fold change vs veh, TMEM135 / RFU, DEPTOR / Fold change vs veh, DEPTOR / RFU, CPM / Fold change vs veh, CPM / RFU, DNAJB6 / Fold change vs veh, DNAJB6 / RFU, CACNA2D3 / Fold change vs veh, CACNA2D3 / RFU, DTX4 / Fold change vs veh, DTX4 / RFU, TFCP2 / Fold change vs veh, TFCP2 / RFU, GMCL1 /// GMCL1P1 / Fold change vs veh, GMCL1 /// GMCL1P1 / RFU, AEBP2 / Fold change vs veh, AEBP2 / RFU, SNHG1 /// SNORD22 /// SNORD25 /// SNORD26 /// SNORD27 /// SNORD28 /// SNORD29 /// SNORD31 / Fold change vs veh, SNHG1 /// SNORD22 /// SNORD25 /// SNORD26 /// SNORD27 /// SNORD28 /// SNORD29 /// SNORD31 / Fold change (Aza/veh), C12orf56 (ProbeSet 11735607_a_at) / Fold change (ACY-1035/veh), C12orf56 (ProbeSet 11735607_a_at) / Fold change (Aza/veh), FGFR1OP (ProbeSet 11751329_s_at) / Fold change (ACY-1035/veh), FGFR1OP (ProbeSet 11751329_s_at) / Fold change (Aza/veh), VPS36 (ProbeSet 11739960_a_at) / Fold change (ACY-1035/veh), VPS36 (ProbeSet 11739960_a_at) / RFU SYPL1 (11715823_x_at) / Fold change /veh SYPL1 (11715823_x_at) / RFU IGFBP7 (11715501_s_at) / Fold change /veh IGFBP7 (11715501_s_at) / RFU REEP3 (11722064_at) / Fold change /veh REEP3 (11722064_at) / RFU IGLL1 (11728026_x_at) / Fold change /veh IGLL1 (11728026_x_at): dose or concentration left out as unconfirmed. Conditions: MV-4-11 cells, 48 hours.

For `Nc1ncn([C@@H]2O[C@H](CO)[C@@H](O)[C@H]2O)c(=O)n1` [azacitidine], the “RFU ARHGAP8 /// PRR5-ARHGAP8 (11727945_x_at)” value turned out to be 97.01 RFU.
